Assay results reported in PubChem BioAssay (NCI).
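These data come from cells grown in 96-well plates and exposed to compound for 48 hours at five concentrations. At the TGI there is no net growth.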

Tests used:
Assay in all cases: NCI tumour cell line growth inhibition, 48 h
IGROV1 ovarian = tested on: IGROV1 ovarian
COLO 205 colon = tested on: COLO 205 colon
NCI-H226 lung = tested on: NCI-H226 lung
RXF 393 renal = tested on: RXF 393 renal
SK-MEL-5 melanoma = tested on: SK-MEL-5 melanoma
SR leukemia = tested on: SR leukemia
SNB-19 CNS = tested on: SNB-19 CNS
HCT-116 colon = tested on: HCT-116 colon
SF-268 CNS = tested on: SF-268 CNS
PC-3 prostate = tested on: PC-3 prostate
UACC-62 melanoma = tested on: UACC-62 melanoma
786-0 renal = tested on: 786-0 renal
LOX IMVI melanoma = tested on: LOX IMVI melanoma
SNB-75 CNS = tested on: SNB-75 CNS

## CCOP(=O)(OCC)/C(C#N)=C/c1ccnc2ccccc12
IGROV1 ovarian
  TGI: > 100 µM
COLO 205 colon
  TGI: 38.1 µM
NCI-H226 lung
  TGI: 55.9 µM
RXF 393 renal
  TGI: 79.1 µM
SK-MEL-5 melanoma
  TGI: 47.8 µM
SR leukemia
  TGI: 73.6 µM
SNB-19 CNS
  TGI: 57.5 µM
HCT-116 colon
  TGI: > 100 µM
SF-268 CNS
  TGI: 56.5 µM
PC-3 prostate
  TGI: 35.4 µM
UACC-62 melanoma
  TGI: 61.4 µM
786-0 renal
  TGI: 51.2 µM
LOX IMVI melanoma
  TGI: > 100 µM
SNB-75 CNS
  TGI: 75.8 µM

## FC1=C2CCCCCC2SC1(F)F (stereo unspecified)
IGROV1 ovarian
  TGI: > 100 µM
COLO 205 colon
  TGI: 39.2 µM
NCI-H226 lung
  TGI: > 100 µM
RXF 393 renal
  TGI: 33.2 µM
SK-MEL-5 melanoma
  TGI: > 100 µM
SR leukemia
  TGI: 53.6 µM
SNB-19 CNS
  TGI: > 100 µM
HCT-116 colon
  TGI: > 100 µM
SF-268 CNS
  TGI: > 100 µM
PC-3 prostate
  TGI: > 100 µM
UACC-62 melanoma
  TGI: > 100 µM
786-0 renal
  TGI: > 100 µM
LOX IMVI melanoma
  TGI: 31.4 µM
SNB-75 CNS
  TGI: > 100 µM

## CC1(C)[C@H]2Cc3cc(-c4cc5c(cn4)[C@@H]4C[C@H]([C@@H]5[C@@H]5c6cc(-c7cc8c(cn7)[C@@H]7C[C@H](C8)C7(C)C)ncc6[C@@H]6C[C@H]5C6(C)C)C4(C)C)ncc3[C@@H]1C2
IGROV1 ovarian
  TGI: > 100 µM
COLO 205 colon
  TGI: > 100 µM
NCI-H226 lung
  TGI: > 100 µM
RXF 393 renal
  TGI: > 100 µM
SK-MEL-5 melanoma
  TGI: > 100 µM
SR leukemia
  TGI: > 100 µM
SNB-19 CNS
  TGI: > 100 µM
HCT-116 colon
  TGI: > 100 µM
SF-268 CNS
  TGI: > 100 µM
PC-3 prostate
  TGI: > 100 µM
UACC-62 melanoma
  TGI: > 100 µM
786-0 renal
  TGI: > 100 µM
LOX IMVI melanoma
  TGI: > 100 µM
SNB-75 CNS
  TGI: > 100 µM

## COCCOC(=O)C(C)=[N+]=[N-]
IGROV1 ovarian
  TGI: > 100 µM
COLO 205 colon
  TGI: > 100 µM
NCI-H226 lung
  TGI: > 100 µM
RXF 393 renal
  TGI: > 100 µM
SK-MEL-5 melanoma
  TGI: > 100 µM
SR leukemia
  TGI: > 100 µM
SNB-19 CNS
  TGI: > 100 µM
HCT-116 colon
  TGI: > 100 µM
SF-268 CNS
  TGI: > 100 µM
PC-3 prostate
  TGI: > 100 µM
UACC-62 melanoma
  TGI: > 100 µM
786-0 renal
  TGI: > 100 µM
LOX IMVI melanoma
  TGI: > 100 µM
SNB-75 CNS
  TGI: > 100 µM

## COc1cc(C(=O)Oc2c(C#N)sc3c2c(=O)n(-c2ccccc2)c(=S)n3-c2ccccc2)cc(OC)c1OC
IGROV1 ovarian
  TGI: 41 µM
COLO 205 colon
  TGI: 30.7 µM
NCI-H226 lung
  TGI: 32.7 µM
RXF 393 renal
  TGI: 47.9 µM
SK-MEL-5 melanoma
  TGI: 31.6 µM
SR leukemia
  TGI: > 100 µM
SNB-19 CNS
  TGI: 72 µM
HCT-116 colon
  TGI: 35.5 µM
SF-268 CNS
  TGI: 84.2 µM
PC-3 prostate
  TGI: > 100 µM
UACC-62 melanoma
  TGI: 54.7 µM
786-0 renal
  TGI: > 100 µM
LOX IMVI melanoma
  TGI: 51.6 µM
SNB-75 CNS
  TGI: 50.3 µM

## CCOP(=O)(OCC)/C(C#N)=C/c1c[nH]c2ccccc12
IGROV1 ovarian
  TGI: > 100 µM
COLO 205 colon
  TGI: > 100 µM
NCI-H226 lung
  TGI: > 100 µM
RXF 393 renal
  TGI: > 100 µM
SK-MEL-5 melanoma
  TGI: > 100 µM
SR leukemia
  TGI: > 100 µM
SNB-19 CNS
  TGI: > 100 µM
HCT-116 colon
  TGI: > 100 µM
SF-268 CNS
  TGI: > 100 µM
PC-3 prostate
  TGI: > 100 µM
UACC-62 melanoma
  TGI: > 100 µM
786-0 renal
  TGI: > 100 µM
LOX IMVI melanoma
  TGI: > 100 µM
SNB-75 CNS
  TGI: > 100 µM

## C/C=C/[C@H](O[Si](C)(C)C(C)(C)C)[C@@H](O)/C=C/C(=O)OCC
IGROV1 ovarian
  TGI: 50.4 µM
COLO 205 colon
  TGI: 40.6 µM
NCI-H226 lung
  TGI: 83.7 µM
RXF 393 renal
  TGI: 43.1 µM
SK-MEL-5 melanoma
  TGI: 32.2 µM
SR leukemia
  TGI: 44.1 µM
SNB-19 CNS
  TGI: 28.7 µM
HCT-116 colon
  TGI: 32.3 µM
SF-268 CNS
  TGI: 53.7 µM
PC-3 prostate
  TGI: > 100 µM
UACC-62 melanoma
  TGI: 38.8 µM
786-0 renal
  TGI: 41.5 µM
LOX IMVI melanoma
  TGI: 33.3 µM
SNB-75 CNS
  TGI: > 100 µM

## CC(C)C(NC(=O)C(Cc1ccccc1)NC(=O)[C@H]1CCC[C@H]1NC(=O)C(N)Cc1ccc(O)cc1)C(N)=O (stereo partly specified)
IGROV1 ovarian
  TGI: > 100 µM
COLO 205 colon
  TGI: > 100 µM
NCI-H226 lung
  TGI: > 100 µM
RXF 393 renal
  TGI: > 100 µM
SK-MEL-5 melanoma
  TGI: > 100 µM
SR leukemia
  TGI: > 100 µM
SNB-19 CNS
  TGI: > 100 µM
HCT-116 colon
  TGI: > 100 µM
SF-268 CNS
  TGI: > 100 µM
PC-3 prostate
  TGI: > 100 µM
UACC-62 melanoma
  TGI: > 100 µM
786-0 renal
  TGI: > 100 µM
LOX IMVI melanoma
  TGI: > 100 µM
SNB-75 CNS
  TGI: > 100 µM

## N#CCCN(CCN(CCC#N)C(=O)Nc1ccccc1)C(=O)Nc1ccccc1
IGROV1 ovarian
  TGI: > 100 µM
COLO 205 colon
  TGI: > 100 µM
NCI-H226 lung
  TGI: > 100 µM
RXF 393 renal
  TGI: 75.3 µM
SK-MEL-5 melanoma
  TGI: > 100 µM
SR leukemia
  TGI: > 100 µM
SNB-19 CNS
  TGI: > 100 µM
HCT-116 colon
  TGI: > 100 µM
SF-268 CNS
  TGI: 87.9 µM
PC-3 prostate
  TGI: > 100 µM
UACC-62 melanoma
  TGI: > 100 µM
786-0 renal
  TGI: > 100 µM
LOX IMVI melanoma
  TGI: > 100 µM
SNB-75 CNS
  TGI: 47.8 µM
